Experimental findings from US20210395313A1, “PEPTIDE PAC1 ANTAGONISTS” (AMGEN INC., priority 2017, published 2021) are described below.

Where a SMILES comes first, the peptide text is derived from it. Bridges are numbered along the chain shown (N, C = ends). Where no end group is shown, it is not given here. A value given as a limit tells only on which side of the number the result lay.

The target of the assay is T1, rat PAC1 receptor (Rattus norvegicus, UniProt P32215).
T1 construct: SHSY-5Y (human neuroblastoma cell line) and RG-2 (rat glioma cell line) cells endogenously express human and rat PAC1 receptors, respectively; endogenous in cells; host or cells: RG-2 rat glioma cells
T1 sequence (P32215 20-523): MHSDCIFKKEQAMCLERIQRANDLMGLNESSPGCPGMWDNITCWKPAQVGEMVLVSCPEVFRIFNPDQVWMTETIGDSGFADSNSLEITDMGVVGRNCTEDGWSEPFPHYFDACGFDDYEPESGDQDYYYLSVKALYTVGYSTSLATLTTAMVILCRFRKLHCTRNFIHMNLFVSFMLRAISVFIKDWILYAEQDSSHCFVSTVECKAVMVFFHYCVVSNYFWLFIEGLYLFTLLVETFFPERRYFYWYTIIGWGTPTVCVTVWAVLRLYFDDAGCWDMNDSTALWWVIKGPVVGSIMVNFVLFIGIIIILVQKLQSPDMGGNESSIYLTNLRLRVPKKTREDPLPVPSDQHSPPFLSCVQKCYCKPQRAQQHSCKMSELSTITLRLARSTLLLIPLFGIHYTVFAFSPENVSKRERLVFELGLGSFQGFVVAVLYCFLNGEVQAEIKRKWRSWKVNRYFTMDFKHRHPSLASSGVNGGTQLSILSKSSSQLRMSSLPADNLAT
Nature of the assay: LANCE Ultra cAMP accumulation antagonist assay in RG-2 cells.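 Also: RG-2 rat glioma cells endogenously expressing PAC1, test peptide preincubated 30 min, then PAC1 agonist added at its EC80 for 15 min, cAMP accumulation read by LANCE Ultra.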 The class given is cell-based.
Description: In order to determine the potency of peptide antagonists at the PAC1 receptor, functional cAMP accumulation assays using LANCE Ultra cAMP assay kit to measure the agonist and antagonist activity of PAC1 peptides were used. SHSY-5Y (human neuroblastoma cell line) and RG-2 (rat glioma cell line) cells endogenously express human and rat PAC1 receptors, respectively. Agonist activity of PAC1 peptides was tested by incubating with SHSY-5Y at 2,000 cells per well or RG-2 at 5,000 cells per well for 15 minutes at room temperature. PAC1 receptor agonist PACAP38 or maxadilan was included as a positive control. The reaction was stopped by adding detection mixture, europium (Eu) chelate-labeled cAMP tracer and cAMP-specific monoclonal antibodies labeled with the ULight™ dye, to all wells followed by a 60-minute incubation at room temperature. The assay plates were then read on an EnVision instrument at an emission wavelength of 665 and 615 nm and data were analyzed using Genedata Screener or GraphPad Prism software. A similar procedure was used in the antagonist assays by using a fixed concentration of PAC1 agonist. The concentrations of agonists were chosen based on their ECK) values at PAC1 receptors in SHSY-5Y or RG-2 cells. SHSY-5Y or RG-2 cells were added into 96-well half-area white plates. Serially diluted PAC1 peptides at ten concentrations were added and incubated for 30 minutes at room temperature. PAC1 agonist at EC80 concentration was then added and further incubated for 15 minutes at room temperature. The reaction was stopped by adding detection mixture to all wells followed by a 60-minute incubation at room temperature. The assay plates were read and analyzed the same way as that of agonist assay. Cells, agonists, and PAC1 peptides were prepared in freshly made assay buffer (F-12, 0.5 mM IBMX, 0.1 or 0.4% BSA (pH 7.4)). Detection mixture was made by mixing a 1/50 dilution of the Eu-cAMP tracer stock solution in cAMP Detection Buffer and a 1/150 dilution of the ULight-anti-cAMP stock solution in cAMP Detection Buffer. Europium (Eu) chelate-labeled cAMP tracer, cAMP-specific monoclonal antibodies labeled with the ULight™ dye, BSA, and detection buffer were provided in LANCE Ultra cAMP Kit from PerkinElmer
Molecule `CC[C@H](C)[C@@H]1NC(=O)[C@H](C)NC(=O)[C@H](CCCCN)NC(=O)[C@H](CCCNC(=N)N)NC(=O)[C@H](Cc2ccccc2)NC(=O)[C@H](CCC(N)=O)NC(=O)[C@H](CO)NC(=O)[C@H]([C@@H](C)O)NC(=O)[C@H](C)NC(=O)[C@H](CC(=O)O)NC(=O)[C@@H](N)CSSC[C@@H](C(=O)N[C@@H](Cc2c[nH]cn2)C(=O)O)NC(=O)[C@H](C)NC(=O)[C@H](CCCCN)NC(=O)[C@H](Cc2c[nH]c3ccccc23)NC(=O)[C@H](CCC(=O)O)NC(=O)[C@H](CCCCN)NC(=O)[C@H](CCCCN)NC(=O)[C@H](CCCCN)NC(=O)[C@H](CCC(N)=O)NC(=O)[C@H](CCCCN)NC(=O)[C@H](CCSC)NC(=O)[C@H](CO)NC(=O)[C@H](C)NC(=O)[C@H](CCCCN)NC(=O)[C@H](Cc2ccccc2)NC(=O)[C@H](C)NC(=O)[C@H](CO)NC(=O)[C@H](CC(=O)O)NC(=O)[C@H](CC(=O)O)NC1=O` [compound 442] (H-CDATSQFRKAIDDSAFKASMKQKKKEWKACH-OH; disulfide 1-30) had an IC50 greater than 100 nM.
For `CC[C@H](C)[C@H](NC(=O)[C@H](C)NC(=O)[C@H](CCCCN)NC(=O)[C@H](CCCNC(=N)N)NC(=O)[C@H](Cc1ccccc1)NC(=O)[C@H](CCC(N)=O)NC(=O)[C@@H]1CSSC[C@H](N)C(=O)N[C@@H](CC(=O)O)C(=O)N[C@@H](C)C(=O)N[C@@H]([C@@H](C)O)C(=O)N1)C(=O)N[C@@H](CC(=O)O)C(=O)N[C@@H](CC(=O)O)C(=O)N[C@H]1CSSC[C@@H](C(=O)N[C@@H](CCSC)C(=O)N[C@@H](CCCCN)C(=O)N[C@@H](CCC(N)=O)C(=O)N[C@@H](CCCCN)C(=O)N[C@@H](CCCCN)C(=O)N[C@@H](CCCCN)C(=O)N[C@@H](CCC(=O)O)C(=O)N[C@@H](Cc2c[nH]c3ccccc23)C(=O)N[C@@H](CCCCN)C(=O)N[C@@H](C)C(=O)NCC(=O)N[C@@H](Cc2c[nH]cn2)C(=O)O)NC(=O)[C@H](C)NC(=O)[C@H](CCCCN)NC(=O)[C@H](Cc2ccccc2)NC(=O)[C@H](C)NC(=O)[C@H](C)NC1=O` [compound 443] (H-CDATCQFRKAIDDCAAFKACMKQKKKEWKAGH-OH; disulfide 1-5, 14-20), the IC50 is greater than 100 nM.
The molecule `CC[C@H](C)[C@H](NC(=O)[C@H](C)NC(=O)[C@H](CCCCN)NC(=O)[C@H](CCCNC(=N)N)NC(=O)[C@H](Cc1ccccc1)NC(=O)[C@H](CCC(N)=O)NC(=O)[C@@H]1CSSC[C@H](N)C(=O)N[C@@H](CC(=O)O)C(=O)N[C@@H](C)C(=O)N[C@@H]([C@@H](C)O)C(=O)N1)C(=O)N[C@@H](CC(=O)O)C(=O)N[C@@H](CC(=O)O)C(=O)N[C@H]1CSSC[C@@H](C(=O)N[C@@H](CCSC)C(=O)N[C@@H](CCCCN)C(=O)N[C@@H](CCC(N)=O)C(=O)N[C@@H](CCCCN)C(=O)N[C@@H](CCCCN)C(=O)N[C@@H](CCCCN)C(=O)N[C@@H](CCC(=O)O)C(=O)N[C@@H](Cc2c[nH]c3ccccc23)C(=O)N[C@@H](CCCCN)C(=O)N[C@@H](C)C(=O)NCC(=O)N[C@@H](Cc2c[nH]cn2)C(=O)O)NC(=O)[C@H](C)NC(=O)[C@H](CCCCN)NC(=O)[C@H](Cc2ccccc2)NC(=O)[C@H](C)NC1=O` [compound 444] (H-CDATCQFRKAIDDCAFKACMKQKKKEWKAGH-OH; disulfide 1-5, 14-19) registered an IC50 of 1 to 100 nM.
In turn, `CC[C@H](C)[C@H](NC(=O)[C@H](C)NC(=O)[C@H](CCCCN)NC(=O)[C@H](CCCNC(=N)N)NC(=O)[C@H](Cc1ccccc1)NC(=O)[C@H](CCC(N)=O)NC(=O)[C@@H]1CSSC[C@H](N)C(=O)N[C@@H](CC(=O)O)C(=O)N[C@@H](C)C(=O)N[C@@H]([C@@H](C)O)C(=O)N1)C(=O)N[C@@H](CC(=O)O)C(=O)N[C@@H](CC(=O)O)C(=O)N[C@H]1CSSC[C@@H](C(=O)N[C@@H](CCSC)C(=O)N[C@@H](CCCCN)C(=O)N[C@@H](CCC(N)=O)C(=O)N[C@@H](CCCCN)C(=O)N[C@@H](CCCCN)C(=O)N[C@@H](CCCCN)C(=O)N[C@@H](CCC(=O)O)C(=O)N[C@@H](Cc2c[nH]c3ccccc23)C(=O)N[C@@H](CCCCN)C(=O)N[C@@H](C)C(=O)NCC(=O)N[C@@H](Cc2c[nH]cn2)C(=O)O)NC(=O)[C@H](C)NC(=O)[C@H](CCCCN)NC(=O)[C@H](Cc2ccccc2)NC(=O)[C@H](CCC(N)=O)NC(=O)[C@H](CCCNC(=N)N)NC(=O)[C@H](C)NC1=O` [compound 447] (H-CDATCQFRKAIDDCARQFKACMKQKKKEWKAGH-OH; disulfide 1-5, 14-21) yielded an IC50 of 0.01 to 1 nM.
Take `CC[C@H](C)[C@H](NC(=O)[C@H](C)NC(=O)[C@H](CCCCN)NC(=O)[C@H](CCCNC(=N)N)NC(=O)[C@H](Cc1ccccc1)NC(=O)[C@H](CCC(N)=O)NC(=O)[C@@H]1CSSC[C@H](N)C(=O)N[C@@H](CC(=O)O)C(=O)N[C@@H](C)C(=O)N[C@@H]([C@@H](C)O)C(=O)N1)C(=O)N[C@@H](CC(=O)O)C(=O)N[C@@H](CC(=O)O)C(=O)N[C@H]1CSSC[C@@H](C(=O)N[C@@H](CCSC)C(=O)N[C@@H](CCCCN)C(=O)N[C@@H](CCC(N)=O)C(=O)N[C@@H](CCCCN)C(=O)N[C@@H](CCCCN)C(=O)N[C@@H](CCCCN)C(=O)N[C@@H](CCC(=O)O)C(=O)N[C@@H](Cc2c[nH]c3ccccc23)C(=O)N[C@@H](CCCCN)C(=O)N[C@@H](C)C(=O)NCC(=O)N[C@@H](Cc2c[nH]cn2)C(=O)O)NC(=O)[C@H](C)NC(=O)[C@H](CCCCN)NC(=O)[C@H](Cc2ccccc2)NC(=O)[C@H](Cc2ccc(O)cc2)NC(=O)[C@H](C)NC(=O)[C@H](CCC(N)=O)NC(=O)[C@H](CCCNC(=N)N)NC(=O)[C@H](C)NC1=O` [compound 448] (H-CDATCQFRKAIDDCARQAYFKACMKQKKKEWKAGH-OH; disulfide 1-5, 14-23): the IC50 is less than 0.01 nM.
Consider `CC[C@H](C)[C@H](NC(=O)[C@H](C)NC(=O)[C@H](CCCCN)NC(=O)[C@H](CCCNC(=N)N)NC(=O)[C@H](Cc1ccccc1)NC(=O)[C@H](CCC(N)=O)NC(=O)[C@@H]1CSSC[C@H](N)C(=O)N[C@@H](CC(=O)O)C(=O)N[C@@H](C)C(=O)N[C@@H]([C@@H](C)O)C(=O)N1)C(=O)N[C@@H](CC(=O)O)C(=O)N[C@@H](CC(=O)O)C(=O)N[C@H]1CSSC[C@@H](C(=O)N[C@@H](CCSC)C(=O)N[C@@H](CCCCN)C(=O)N[C@@H](CCC(N)=O)C(=O)N[C@@H](CCCCN)C(=O)N[C@@H](CCCCN)C(=O)N[C@@H](CCCCN)C(=O)N[C@@H](CCC(=O)O)C(=O)N[C@@H](Cc2c[nH]c3ccccc23)C(=O)N[C@@H](CCCCN)C(=O)N[C@@H](C)C(=O)NCC(=O)N[C@@H](Cc2c[nH]cn2)C(=O)O)NC(=O)[C@H](C)NC(=O)[C@H](CO)NC(=O)[C@H](Cc2c[nH]cn2)NC(=O)[C@H](Cc2ccc(O)cc2)NC(=O)[C@H](C)NC(=O)[C@H](CCC(N)=O)NC(=O)[C@H](CCCNC(=N)N)NC(=O)[C@H](C)NC1=O` [compound 449] (H-CDATCQFRKAIDDCARQAYHSACMKQKKKEWKAGH-OH; disulfide 1-5, 14-23), for which the half-maximal inhibitory concentration (IC50) lay within 1 to 100 nM.
In turn, `CC[C@H](C)[C@H](NC(=O)[C@H](C)NC(=O)[C@H](CCCCN)NC(=O)[C@H](CCCNC(=N)N)NC(=O)[C@H](Cc1ccccc1)NC(=O)[C@H](CCC(N)=O)NC(=O)[C@@H]1CSSC[C@H](N)C(=O)N[C@@H](CC(=O)O)C(=O)N[C@@H](C)C(=O)N[C@@H]([C@@H](C)O)C(=O)N1)C(=O)N[C@@H](CC(=O)O)C(=O)N[C@@H](CC(=O)O)C(=O)N[C@H]1CSSC[C@@H](C(=O)N[C@@H](CCSC)C(=O)N[C@@H](CCCCN)C(=O)N[C@@H](CCC(N)=O)C(=O)N[C@@H](CCCCN)C(=O)N[C@@H](CCCCN)C(=O)N[C@@H](CCCCN)C(=O)N[C@@H](CCC(=O)O)C(=O)N[C@@H](Cc2c[nH]c3ccccc23)C(=O)N[C@@H](CCCCN)C(=O)N[C@@H](Cc2c[nH]cn2)C(=O)O)NC(=O)[C@H](C)NC(=O)[C@H](CCCCN)NC(=O)[C@H](Cc2ccccc2)NC(=O)[C@H](CO)NC(=O)[C@H](Cc2c[nH]cn2)NC(=O)[C@H](Cc2ccc(O)cc2)NC(=O)[C@H](C)NC(=O)[C@H](CCC(N)=O)NC(=O)[C@H](CCCNC(=N)N)NC(=O)[C@H](C)NC1=O` [compound 450] (H-CDATCQFRKAIDDCARQAYHSFKACMKQKKKEWKH-OH; disulfide 1-5, 14-25) had a half-maximal inhibitory concentration (IC50) of 1 to 100 nM.
In the case of `CC[C@H](C)[C@H](NC(=O)[C@H](C)NC(=O)[C@H](CCCCN)NC(=O)[C@H](CCCNC(=N)N)NC(=O)[C@H](Cc1ccccc1)NC(=O)[C@H](CCC(N)=O)NC(=O)[C@@H]1CSSC[C@H](N)C(=O)N[C@@H](CC(=O)O)C(=O)N[C@@H](C)C(=O)N[C@@H]([C@@H](C)O)C(=O)N1)C(=O)N[C@@H](CC(=O)O)C(=O)N[C@@H](CC(=O)O)C(=O)N[C@H]1CSSC[C@@H](C(=O)N[C@@H](CCSC)C(=O)N[C@@H](CCCCN)C(=O)N[C@@H](CCC(N)=O)C(=O)N[C@@H](CCCCN)C(=O)N[C@@H](CCCCN)C(=O)N[C@@H](CCCCN)C(=O)N[C@@H](CCC(=O)O)C(=O)N[C@@H](Cc2c[nH]c3ccccc23)C(=O)N[C@@H](CCCCN)C(=O)N[C@@H](C)C(=O)N[C@@H](Cc2c[nH]cn2)C(=O)O)NC(=O)[C@H](C)NC(=O)[C@H](CCCCN)NC(=O)[C@H](Cc2ccccc2)NC(=O)[C@H](CO)NC(=O)[C@H](Cc2c[nH]cn2)NC(=O)[C@H](Cc2ccc(O)cc2)NC(=O)[C@H](C)NC(=O)[C@H](CCC(N)=O)NC(=O)[C@H](CCCNC(=N)N)NC(=O)[C@H](C)NC1=O` [compound 451] (H-CDATCQFRKAIDDCARQAYHSFKACMKQKKKEWKAH-OH; disulfide 1-5, 14-25) it was 1 to 100 nM; in that of “ACDATCQFRKAIDDCQKQAHHSNVPGSVFKACMKQKKKEFKAG-NH2 (disulfide 2-6, 15-32) [compound 184]”, 0.01 to 1 nM.
In the case of “CDATCQFRKAIDDCAGTARHSNVPGSVFKACMKQKKKEWKAG-NH2 (disulfide 1-5, 14-31) [compound 446]” it was 1 to 100 nM.
